Activity calls are given as the source filed them. No cut-off for these calls is given here.
What was measured:
Egl nine homolog 1 = Egl nine homolog 1 (Homo sapiens, UniProt Q9GZT9); assay: Binding affinity to PHD2 (unknown origin) assessed as change in melting temperature at 10 uM in presence of ZnSO4 by thermal shift assay
CWR22R = assay: Cytotoxicity against human 22Rv1 cells assessed as reduction in cell viability at 10 uM incubated for 72 to 96 hrs by Celltiter-Glo assay; type: toxicity, cell-based; conditions: time 72-96 hrs
hERG [1] = target: T1, hERG (Homo sapiens, UniProt Q12809); assay: Inhibition of hERG expressed in HEK293 cells at 10 uM by patch-clamp assay relative to control; type: toxicity, cell-based; conditions: HEK293 cells expressing hERG
Hepatocyte [2] = assay: Inhibition of lipid metabolism in mouse primary hepatocytes assessed as reduction in intracellular tryglyceride level at 10 uM incubated for 24 hrs; type: functional, cell-based
[3] = Clearance in overnight fasted Sprague-Dawley rat at 5 mg/kg, iv measured upto 24 hrs; type: ADME, organism-based; conditions: in vivo
[4] = Agonist activity at human TRbeta H435 mutant expressed in Escherichia coli BL21 (DE3) cells by alphascreen assay
[5] = Microsomal stability in human liver microsomes assessed as intrinsic clearance at 1 uM incubated for 60 mins by HPLC-MS/MS analysis; type: ADME, Microsome; conditions: read-out: CLH
HepG2 [6] = assay: Inhibition of lipid metabolism in human HepG2 cells assessed as reduction in total lipid accumulation at 10 uM incubated for 24 hrs by oil red O staining based inverted microscopic analysis; type: functional, cell-based
[7] = Half life in overnight fasted Sprague-Dawley rat at 5 mg/kg, iv measured upto 24 hrs; type: ADME, organism-based; conditions: in vivo
BXPC-3 = assay: Cytotoxicity against human BXPC-3 cells assessed as reduction in cell viability at 10 uM incubated for 72 to 96 hrs by Celltiter-Glo assay; type: toxicity, cell-based; conditions: bxpc-3, 10 µM, time 72-96 hrs
MDA-MB-231 = assay: Cytotoxicity against human MDA-MB-231 cells assessed as reduction in cell viability at 10 uM incubated for 72 to 96 hrs by Celltiter-Glo assay; type: toxicity, cell-based; conditions: mda-mb-231, 10 µM, time 72-96 hrs
hERG [8] = target: T1, hERG; assay: Inhibition of hERG expressed in HEK293 cells at 1 uM by patch-clamp assay relative to control; type: toxicity, cell-based; conditions: HEK293 cells expressing hERG
[9] = Microsomal stability in human liver microsomes assessed as half life at 1 uM incubated for 60 mins by HPLC-MS/MS analysis; type: ADME, Microsome
HepG2 [10] = assay: Induction of mitochondrial basal respiration in human HepG2 cells assessed as increase in oxygen consumption rate at 10 uM measured after 24 hrs by Seahorse XFe96 flux analyzer; type: functional, cell-based
CYP1A2 = CYP1A2 (Homo sapiens, UniProt P05177); assay: Inhibition of CYP1A2 in human liver microsomes at 10 uM incubated for 10 mins by LC-MS/MS analysis relative to control; type: ADME, Microsome
[11] = Tmax in overnight fasted Sprague-Dawley rat at 5 mg/kg, po measured upto 24 hrs; type: ADME, organism-based; conditions: in vivo
[12] = Volume of distribution at steady state in overnight fasted Sprague-Dawley rat at 5 mg/kg, iv measured upto 24 hrs; type: ADME, organism-based; conditions: in vivo, read-out: Vdss
HepG2 [13] = assay: Cytotoxicity against human HepG2 cells assessed as reduction in cell viability at 10 uM incubated for 72 to 96 hrs by Celltiter-Glo assay; type: toxicity, cell-based; conditions: hepg2, 10 µM, time 72-96 hrs
[14] = Oral bioavailability in overnight fasted Sprague-Dawley rat at 5 mg/kg measured upto 24 hrs; type: ADME, organism-based; conditions: in vivo
[15] = Tmax in overnight fasted Sprague-Dawley rat at 5 mg/kg, iv measured upto 24 hrs; type: ADME, organism-based; conditions: in vivo
HepG2 [16] = assay: Inhibition of lipid metabolism in human HepG2 assessed as reduction in intracellular tryglyceride level at 1 to 10 uM incubated for 24 hrs; type: functional, cell-based; conditions: dose 1-10 µM
[17] = Cmax in overnight fasted Sprague-Dawley rat at 5 mg/kg, po measured upto 24 hrs; type: ADME, organism-based; parameters: time < 24 hrs, dose 5 mg/kg, route po; conditions: in vivo
MCF7 = assay: Cytotoxicity against human MCF7 cells assessed as reduction in cell viability at 10 uM incubated for 72 to 96 hrs by Celltiter-Glo assay; type: toxicity, cell-based; conditions: mcf7, 10 µM, time 72-96 hrs
HepG2 [18] = assay: Inhibition of lipid metabolism in human HepG2 cells assessed as increase in p-AMPK/AMPK ratio at 10 uM incubated for 24 hrs by Western blot analysis; type: functional, cell-based
[19] = Microsomal stability in rat liver microsomes assessed as half life at 1 uM incubated for 60 mins by HPLC-MS/MS analysis; type: ADME, Microsome
CYP2B6 = CYP2B6 (Homo sapiens, UniProt P20813); assay: Inhibition of CYP2B6 in human liver microsomes at 10 uM incubated for 10 mins by LC-MS/MS analysis relative to control; type: ADME, Microsome
A549 = assay: Cytotoxicity against human A549 cells assessed as reduction in cell viability at 10 uM incubated for 72 to 96 hrs by Celltiter-Glo assay; type: toxicity, cell-based; conditions: a549, 10 µM, time 72-96 hrs
[20] = AUC (0 to infinity) in overnight fasted Sprague-Dawley rat at 5 mg/kg, iv measured upto 24 hrs; type: ADME, organism-based; parameters: dose 5 mg/kg, time < 24 hrs, route iv; conditions: in vivo
HepG2 [21] = assay: Inhibition of lipid metabolism in human HepG2 cells assessed as increase in CPT1 levels at 10 uM incubated for 24 hrs by Western blot analysis; type: functional, cell-based
[22] = Half life in overnight fasted Sprague-Dawley rat at 5 mg/kg, po measured upto 24 hrs; type: ADME, organism-based; conditions: in vivo
[23] = target: T2, Thyroid hormone receptor alpha (Homo sapiens) (UniProt P10827); conditions: filed as agonist, dose 10.0 µM
T2 sequence (whole entry): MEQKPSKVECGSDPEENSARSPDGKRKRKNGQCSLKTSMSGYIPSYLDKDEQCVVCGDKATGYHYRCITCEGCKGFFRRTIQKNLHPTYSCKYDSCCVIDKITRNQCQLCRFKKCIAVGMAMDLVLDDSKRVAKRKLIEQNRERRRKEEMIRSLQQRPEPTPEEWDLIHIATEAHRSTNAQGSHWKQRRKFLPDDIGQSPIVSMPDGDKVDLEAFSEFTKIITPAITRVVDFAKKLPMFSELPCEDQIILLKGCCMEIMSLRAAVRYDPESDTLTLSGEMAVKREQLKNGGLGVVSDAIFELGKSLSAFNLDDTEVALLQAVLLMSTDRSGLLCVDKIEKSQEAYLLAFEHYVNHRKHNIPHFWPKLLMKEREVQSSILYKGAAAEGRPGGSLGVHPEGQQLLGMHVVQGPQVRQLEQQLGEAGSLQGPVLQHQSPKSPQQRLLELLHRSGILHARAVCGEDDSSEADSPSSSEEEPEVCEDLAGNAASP

Hepatocyte [24] = assay: Inhibition of lipid metabolism in mouse primary hepatocytes assessed as reduction in intracellular total cholesterol level at 10 uM incubated for 24 hrs; type: functional, cell-based
[25] = AUC (0 to infinity) in overnight fasted Sprague-Dawley rat at 5 mg/kg, po measured upto 24 hrs; type: ADME, organism-based; parameters: dose 5 mg/kg, time < 24 hrs, route po; conditions: in vivo
HFL1 = assay: Cytotoxicity against human HFL1 cells assessed as reduction in cell viability at 10 uM incubated for 72 to 96 hrs by Celltiter-Glo assay; type: toxicity, cell-based; conditions: hfl1, 10 µM, time 72-96 hrs
CYP2C8 = CYP2C8 (Homo sapiens, UniProt P10632); assay: Inhibition of CYP2C8 in human liver microsomes at 10 uM incubated for 20 mins by LC-MS/MS analysis relative to control; type: ADME, Microsome
Chain of CYP2C8 (P10632 whole entry): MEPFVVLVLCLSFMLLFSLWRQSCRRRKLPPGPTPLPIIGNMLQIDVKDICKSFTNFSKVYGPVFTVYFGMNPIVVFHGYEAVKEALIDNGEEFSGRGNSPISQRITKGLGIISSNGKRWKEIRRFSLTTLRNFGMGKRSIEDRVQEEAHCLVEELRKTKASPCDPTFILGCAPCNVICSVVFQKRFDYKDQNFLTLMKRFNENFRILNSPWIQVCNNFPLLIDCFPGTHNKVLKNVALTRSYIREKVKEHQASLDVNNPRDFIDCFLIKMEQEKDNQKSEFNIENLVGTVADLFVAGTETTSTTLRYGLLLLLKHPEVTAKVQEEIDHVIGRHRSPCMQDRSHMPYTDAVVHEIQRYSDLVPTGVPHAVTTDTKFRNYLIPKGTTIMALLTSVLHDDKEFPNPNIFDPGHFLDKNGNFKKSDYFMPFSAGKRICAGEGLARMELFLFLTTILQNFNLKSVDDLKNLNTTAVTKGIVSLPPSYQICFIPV

T1 sequence (Q12809 whole entry): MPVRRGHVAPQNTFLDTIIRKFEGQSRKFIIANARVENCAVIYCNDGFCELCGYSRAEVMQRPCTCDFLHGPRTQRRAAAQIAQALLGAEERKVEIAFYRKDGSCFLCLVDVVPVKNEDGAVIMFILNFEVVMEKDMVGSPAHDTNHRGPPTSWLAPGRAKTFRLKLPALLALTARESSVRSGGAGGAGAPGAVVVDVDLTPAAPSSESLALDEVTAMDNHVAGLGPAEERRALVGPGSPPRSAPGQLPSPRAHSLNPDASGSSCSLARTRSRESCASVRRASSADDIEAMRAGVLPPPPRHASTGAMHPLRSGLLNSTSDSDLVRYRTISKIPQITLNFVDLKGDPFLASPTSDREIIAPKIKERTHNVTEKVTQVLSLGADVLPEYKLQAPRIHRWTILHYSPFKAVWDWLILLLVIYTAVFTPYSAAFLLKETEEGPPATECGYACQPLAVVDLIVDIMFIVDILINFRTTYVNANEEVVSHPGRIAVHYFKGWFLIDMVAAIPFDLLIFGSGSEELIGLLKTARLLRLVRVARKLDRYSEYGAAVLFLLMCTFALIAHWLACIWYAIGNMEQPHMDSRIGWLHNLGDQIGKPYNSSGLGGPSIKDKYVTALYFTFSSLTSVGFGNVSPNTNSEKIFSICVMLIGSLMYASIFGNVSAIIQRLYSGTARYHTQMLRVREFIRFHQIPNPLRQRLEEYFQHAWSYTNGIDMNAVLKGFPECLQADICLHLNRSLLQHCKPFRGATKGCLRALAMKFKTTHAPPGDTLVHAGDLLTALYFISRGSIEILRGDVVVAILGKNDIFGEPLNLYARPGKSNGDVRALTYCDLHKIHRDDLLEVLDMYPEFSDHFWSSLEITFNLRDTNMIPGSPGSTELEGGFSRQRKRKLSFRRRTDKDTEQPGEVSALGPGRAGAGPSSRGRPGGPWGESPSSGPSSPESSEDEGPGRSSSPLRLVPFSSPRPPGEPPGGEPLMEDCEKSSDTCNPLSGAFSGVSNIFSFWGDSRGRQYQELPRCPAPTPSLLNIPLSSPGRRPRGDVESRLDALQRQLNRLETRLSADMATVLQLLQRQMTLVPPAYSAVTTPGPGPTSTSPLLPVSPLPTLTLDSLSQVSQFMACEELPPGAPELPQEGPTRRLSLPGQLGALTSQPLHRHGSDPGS
Chain of CYP2B6 (P20813 whole entry): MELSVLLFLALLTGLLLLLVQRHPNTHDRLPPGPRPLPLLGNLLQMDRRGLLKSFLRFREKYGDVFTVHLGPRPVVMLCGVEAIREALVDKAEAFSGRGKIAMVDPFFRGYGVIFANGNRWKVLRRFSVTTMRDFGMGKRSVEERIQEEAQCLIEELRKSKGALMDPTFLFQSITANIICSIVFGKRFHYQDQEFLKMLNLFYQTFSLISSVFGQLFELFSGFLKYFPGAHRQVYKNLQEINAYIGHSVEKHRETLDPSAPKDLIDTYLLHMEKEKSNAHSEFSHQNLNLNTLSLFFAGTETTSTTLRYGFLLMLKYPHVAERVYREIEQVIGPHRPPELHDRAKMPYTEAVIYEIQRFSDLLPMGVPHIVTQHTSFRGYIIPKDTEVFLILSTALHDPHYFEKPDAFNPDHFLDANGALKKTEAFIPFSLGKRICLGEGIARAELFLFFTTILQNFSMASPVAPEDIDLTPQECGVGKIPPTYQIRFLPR
Chain of CYP1A2 (P05177 whole entry): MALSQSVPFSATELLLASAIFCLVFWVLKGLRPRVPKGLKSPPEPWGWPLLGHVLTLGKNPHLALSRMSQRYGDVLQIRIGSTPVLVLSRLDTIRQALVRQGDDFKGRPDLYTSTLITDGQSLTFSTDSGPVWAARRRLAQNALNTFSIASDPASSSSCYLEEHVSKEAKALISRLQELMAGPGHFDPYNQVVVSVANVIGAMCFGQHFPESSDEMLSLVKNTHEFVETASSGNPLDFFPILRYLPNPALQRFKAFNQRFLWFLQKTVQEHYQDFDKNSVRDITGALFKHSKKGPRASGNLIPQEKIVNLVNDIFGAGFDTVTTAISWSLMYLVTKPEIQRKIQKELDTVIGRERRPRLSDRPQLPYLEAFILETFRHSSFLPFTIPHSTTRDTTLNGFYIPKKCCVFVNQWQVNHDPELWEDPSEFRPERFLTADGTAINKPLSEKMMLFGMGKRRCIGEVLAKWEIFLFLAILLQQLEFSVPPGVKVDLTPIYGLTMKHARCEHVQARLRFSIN
Chain of Egl nine homolog 1 (Q9GZT9 2-426 limits assumed): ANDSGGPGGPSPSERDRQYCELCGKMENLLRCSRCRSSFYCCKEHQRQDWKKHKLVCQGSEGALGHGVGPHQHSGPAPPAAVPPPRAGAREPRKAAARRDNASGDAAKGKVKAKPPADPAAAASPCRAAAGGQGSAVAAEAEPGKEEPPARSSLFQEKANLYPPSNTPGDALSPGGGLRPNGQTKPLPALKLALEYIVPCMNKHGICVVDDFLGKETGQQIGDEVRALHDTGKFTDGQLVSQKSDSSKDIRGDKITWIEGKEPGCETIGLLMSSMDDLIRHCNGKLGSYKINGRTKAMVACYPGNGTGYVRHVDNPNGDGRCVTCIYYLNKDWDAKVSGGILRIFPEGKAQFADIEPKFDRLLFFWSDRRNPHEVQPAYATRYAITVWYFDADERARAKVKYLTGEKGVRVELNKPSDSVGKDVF

ΔTm (Egl nine homolog 1): 1.5 °C | clearance [3]: 7.83 mL/min/kg | EC50 [4]: 1340 nM | CLint scaled at 1 µM [5]: < 14.5 mL/min/kg | half-life [7]: 1.8 h | half-life at 1 µM [9]: > 2 h | inhibition at 10 min, 10 µM (CYP1A2): 1.67% | Tmax [11]: 1.33 h | Vd [12]: 0.72 L/kg | bioavailability [14]: 57.3% | Tmax [15]: 4.8 min | Cmax [17]: 1450 ng/mL | half-life at 1 µM [19]: > 2 h | inhibition at 10 min, 10 µM (CYP2B6): 15.2% | AUC(0-inf) [20]: 10900 ng·h/mL | half-life [22]: 2.58 h | ΔTm [23]: 0.1 °C | AUC(0-inf) [25]: 6830 ng·h/mL | inhibition at 20 min, 10 µM (CYP2C8): 26.3%
SMILES: COc1cc(F)cc(C(=O)c2cc(C)c(Oc3ccc4c(O)c(C(=O)NCC(=O)O)nc(OC)c4c3)c(C)c2)c1
Activity (CWR22R): Non-Toxic | inhibition at 10 µM (hERG [1]): 9.13% | inhibition (Hepatocyte [2]): Active | inhibition (HepG2 [6]): Active | Activity (BXPC-3): Non-Toxic | Activity (MDA-MB-231): Non-Toxic | inhibition at 1 µM (hERG [8]): 4.19% | Activity (HepG2 [10]): Active | Activity (HepG2 [13]): Non-Toxic | inhibition (HepG2 [16]): Active | Activity (MCF7): Non-Toxic | inhibition (HepG2 [18]): Active | Activity (A549): Non-Toxic | inhibition (HepG2 [21]): Active | inhibition (Hepatocyte [24]): Active | Activity (HFL1): Non-Toxic

— ChEMBL document CHEMBL5154903 (J Med Chem, 2022)
